Assay: Clinical repeated dose study: pharmacokinetics (LC/MS/MS plasma concentrations)
Assay type: in vivo, human
Protocol: The clinical study was a repeated dose study in 5 groups of Caucasian male subjects aged 18 to 55 years. Each subject received a single oral dose of Compound A/placebo on Day 1, followed by once daily doses on Days 8 to 35 (5 mg Compound A/placebo—Group 1) or Days 8 to 28 (1, 2.5, 10 and 25 mg Compound A/placebo—Groups 2 to 5). All doses were administered at the study center after a standard breakfast. Subjects in each dose group were allocated to study treatment in a ratio of 10 Compound A to 2 placebo. Blood samples for pharmacokinetic and pharmacodynamic (CETP activity, CETP concentration, HDL-C, LDL-C, total cholesterol, triglycerides) assessments were collected from prior to each dose and at intervals throughout the study until 336 hours after the last dose. Secondary pharmacodynamic endpoints (including apolipoproteins A1, A2, B, and E, HDL2-C, HDL3-C, phospholipids, HDL-free cholesterol [HDL-FC], HDL-cholesteryl ester [HDL-CE], HDL-phospholipids [HDL-PL], HDL-triglycerides [HDL-TG], and LDL particle size) were measured at intervals until the last day of dosing. Urine was collected for pharmacokinetics from pre dose and at intervals up to 72 hours after the first and last dose. Safety assessments including adverse events, blood pressure and pulse rate, ECGs, laboratory safety tests (including aldosterone) and physical examinations were conducted throughout both studies.
Plasma and urine concentrations of Compound A were determined using validated liquid chromatography with tandem mass spectrometry (LC/MS/MS) methods. The lower limit of quantification (LLQ) for both assays was 0.500 ng/mL. Plasma concentration of CETP was determined using a validated enzyme-linked immunosorbent assay (ELISA) method with a lower limit of quantification (LLQ) of 0.500 μg/mL. CETP activity was determined as the rate of [^3H]-labeled CE transfer from donor HDL to acceptor VLDL/LDL. [^3H]CE-labeled HDL was added to human plasma and incubated for 4 hours at 37° C. Non-HDL lipoproteins were precipitated and separated from HDL, and the amount of radioactivity in the supernatant was quantitated. CETP activity was determined as the difference of the radioactivity between the samples incubated at 37° C. and 4° C. HDL-C and LDL-C were measured by homogenous enzymatic colorimetric assay using a Modular analyser (Roche Diagnostics). Total cholesterol and triglycerides were measured by homogenous enzymatic assay using a Modular analyser (cholesterol oxidase peroxidase-peroxidase aminophenazone phenol [CHOP-PAP]) method and a glycerol phosphate oxidase [GPO-PAP] method, respectively. ApoA1, ApoA2, ApoB and ApoE were measured by immunoturbidimetry using reagents from Rolf Greiner Biochemica (Germany) and N-apoprotein standard serum from Siemens (Germany). LDL particle size was determined by gradient gel electrophoresis. HDL fraction was separated by a combined ultracentrifugation-precipitation method (Beta-quantification). HDL-2 and HDL-3 fractions were then separated by further ultracentrifugation. Total-cholesterol in HDL, HDL-2 and HLD-3 fractions, free cholesterol in HDL fraction, triglycerides in HDL fraction and phospholipids in plasma and HDL-fraction were measured using enzymatic methods and reagents from Diasys Diagnostics (Germany). The measurements were performed on an Olympus AU600 automatic analyzer and were calibrated using secondary standards from Roche Diagnostics (Total-cholesterol, triglycerides) and Diasys Diagnostics (free cholesterol, phospholipids), respectively. Esterified cholesterol was calculated as the difference between total-cholesterol and free cholesterol.
The sample sizes for the study were chosen based on practical considerations rather than statistical power. The numbers of subjects in each group were considered to be adequate to assess the main objectives of each study. Subjects were allocated to Compound A or placebo in each group by means of a computer-generated randomization code. […]

[1] = steady state, for a 25-fold increase in dose

In the case of `CCOC(=O)N1c2ccc(C(F)(F)F)cc2[C@@H](N(Cc2cc(C(F)(F)F)cc(C(F)(F)F)c2)c2ncc(OCCCC(=O)O)cn2)C[C@H]1CC` [Compound A, {4-[(2-{[3,5-bis(trifluoromethyl)benzyl][(2R,4S)-1-(ethoxycarbonyl)-2-ethyl-6-(trifluoromethyl)-1,2,3,4-tetrahydroquinolin-4-yl]amino}pyrimidin-5-yl)oxy]butanoic acid}], the “accumulation with once daily dosing” value (1 mg) is reported as “approximately 6 fold”, the “accumulation with once daily dosing” value (25 mg) is reported as 2 fold and the “residual effects on cessation of dosing” value (at the claimed dose (1 to 25 mg per day)) is reported as “does not show prolonged residual effects”. For the same molecule, the food effects (clinical studies) was “does not suffer from food effects”, the half-life (male, human, plasma, oral, following the last dose, independent of dose, read-out: mean terminal half-life) was 121 to 151 h and the Tmax (male, human, plasma, oral, post-dose, independent of dose, 1 to 25 mg, read-out: Tmax (median)) was 4 to 6 h. For the same molecule, the “CVs for Cmax, Cmin and AUC parameters” value (single and multiple dosing) was at most 33%, the “increase of plasma concentrations with dose” value (single doses from 1 to 25 mg) was “approximately proportionally to dose” and the “increase in AUC0-tau,ss” value [1] was 9 fold. For the same molecule, the “increase in Cmax,ss” value [1] was 12 fold and the “increase in Cmin,ss” value [1] was 7 fold.

Source: patent US11642344B2, “Cholesteryl ester transfer protein (CETP) inhibitor and pharmaceutical compositions comprising said inhibitor for use in the treatment or prevention of cardiovascular diseases” (NewAmsterdam Pharma B.V., priority 2014, dated 2023)
